From patent publication US7781421B2, “Neuroactive 13, 24-cyclo-18, 21-dinorcholanes and structurally related pentacyclic steriods” (Washington University, priority 2003, dated 2010)
Where “and” joins values, the source holds several entries; their conditions need not be identical. Equal values may be shown once. Read-outs that look alike come from different tables or passages of the source.

Columns and labels:
Xenopus laevis tadpoles = test: Tadpole loss of righting (LRR) and swimming (LSR) reflexes; assay type: in vivo; conditions: 3 h equilibration at room temperature; for EC50: read-out: LSR EC50 (loss of swimming response)
In short: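 Groups of 10 early prelimb-bud Xenopus laevis tadpoles were held for 3 h at room temperature in oxygenated Ringer's containing compound (DMSO ≤0.1%). Loss of righting was scored as failure to right within 5 sec after flipping, and loss of swimming as failure to swim when touched. EC50 came from a Hill equation fit.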

[1] = target: GABAA receptor ([35S]-TBPS binding site, rat brain cortical membranes); test: Displacement of [35S]-TBPS binding, rat brain cortical membranes; conditions: 5 μM GABA, 2 nM [35S]-TBPS; ± standard error of the means
In short: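 Rat cortical P2 membranes (0.5 mg/mL protein) incubated 2 h at room temperature with 2 nM [35S]-TBPS, 5 μM GABA and steroid (1 nM–10 μM) in 200 mM NaCl/50 mM potassium phosphate, pH 7.4. Filter-bound radioactivity counted; IC50 from Hill equation fit, triplicate points.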

[2] = target: T1, rat α1β2γ2 GABAA Receptor (Rattus norvegicus, UniProt P18508+P62813+P63138, INS375LLRMFSFK); test: Xenopus oocyte two-electrode voltage-clamp electrophysiology; assay type: cell-based; conditions: for Oocyte electrophysiology, ratio of currents in presence/absence of compound, 10 μM: 10 μM compound co-applied with 2 μM GABA; for Oocyte electrophysiology, ratio of currents in presence/absence of compound, 10 μM / Oocyte electrophysiology, ratio of currents in presence/absence of compound, 0.1 μM / Oocyte electrophysiology, ratio of currents in presence/absence of compound, 1 μM: −70 mV; for Oocyte electrophysiology, ratio of currents in presence/absence of compound, 0.1 μM: 0.1 μM compound co-applied with 2 μM GABA; for Oocyte electrophysiology, ratio of currents in presence/absence of compound, 1 μM: 1 μM compound co-applied with 2 μM GABA; for Gating (10 μM), ratio of compound only current/2 μM GABA current: direct current gated by 10 μM compound in the absence of GABA
T1 construct: from linearized pBluescript vectors containing receptor coding regions; expressed in transfected cells; host or cells: Xenopus laevis oocytes injected with in vitro transcribed capped mRNA
T1 sequence (P62813 28-455, stated change not applied): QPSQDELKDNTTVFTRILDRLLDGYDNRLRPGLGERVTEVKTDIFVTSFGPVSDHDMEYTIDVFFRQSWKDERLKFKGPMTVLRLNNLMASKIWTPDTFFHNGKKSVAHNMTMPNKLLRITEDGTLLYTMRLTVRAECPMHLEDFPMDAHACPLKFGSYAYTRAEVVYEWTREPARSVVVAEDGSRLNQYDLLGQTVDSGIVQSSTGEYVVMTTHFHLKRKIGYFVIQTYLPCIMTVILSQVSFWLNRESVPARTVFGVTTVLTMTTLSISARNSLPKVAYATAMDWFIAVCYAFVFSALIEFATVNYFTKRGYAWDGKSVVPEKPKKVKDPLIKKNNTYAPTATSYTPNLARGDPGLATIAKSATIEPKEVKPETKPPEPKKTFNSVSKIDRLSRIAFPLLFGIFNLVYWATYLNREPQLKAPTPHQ
T1 sequence (P63138 26-474, stated change not applied): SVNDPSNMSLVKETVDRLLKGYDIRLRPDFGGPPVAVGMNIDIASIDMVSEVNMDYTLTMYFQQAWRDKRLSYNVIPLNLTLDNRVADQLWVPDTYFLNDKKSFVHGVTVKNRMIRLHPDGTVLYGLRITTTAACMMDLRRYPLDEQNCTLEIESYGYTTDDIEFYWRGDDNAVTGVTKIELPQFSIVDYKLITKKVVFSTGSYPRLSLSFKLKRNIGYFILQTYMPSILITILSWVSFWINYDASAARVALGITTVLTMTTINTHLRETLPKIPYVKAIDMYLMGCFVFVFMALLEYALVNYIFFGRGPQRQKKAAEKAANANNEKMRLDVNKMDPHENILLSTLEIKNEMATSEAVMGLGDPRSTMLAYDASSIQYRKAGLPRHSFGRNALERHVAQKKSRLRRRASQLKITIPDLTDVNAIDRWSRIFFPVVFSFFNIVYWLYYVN
T1 sequence (P18508 with tags, fused parts or gaps INS375LLRMFSFK): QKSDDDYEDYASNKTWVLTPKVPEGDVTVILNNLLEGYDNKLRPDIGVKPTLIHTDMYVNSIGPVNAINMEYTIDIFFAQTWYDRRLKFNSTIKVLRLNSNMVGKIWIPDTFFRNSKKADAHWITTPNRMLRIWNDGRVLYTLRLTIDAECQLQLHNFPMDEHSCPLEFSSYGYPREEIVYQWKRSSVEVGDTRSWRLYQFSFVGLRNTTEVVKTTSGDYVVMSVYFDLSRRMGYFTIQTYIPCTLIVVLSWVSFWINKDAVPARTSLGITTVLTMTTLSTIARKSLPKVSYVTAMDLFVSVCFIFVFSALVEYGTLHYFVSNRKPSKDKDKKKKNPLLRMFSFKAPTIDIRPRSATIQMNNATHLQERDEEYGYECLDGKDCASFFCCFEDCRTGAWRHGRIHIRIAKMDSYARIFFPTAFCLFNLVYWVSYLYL
In short: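 Oocytes injected with rat α1, β2, γ2L mRNA, voltage-clamped at −70 mV 2-5 days later in ND96. Compounds co-applied with 2 μM GABA for 20 s; peak current ratio with/without compound, n≥4 oocytes. (G): current from 10 μM compound alone, as ratio to 2 μM GABA current.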

Row | Compound | LRR ED50 (loss of righting response) (Xenopus laevis tadpoles) | EC50 (Xenopus laevis tadpoles; Xenopus laevis, 3 h) [µM] | melting point | IC50 [1] [nM] | Oocyte electrophysiology, ratio of currents in presence/absence of compound, 10 μM [2] | LSR EC50 (loss of swimming response) (Xenopus laevis tadpoles) | Oocyte electrophysiology, ratio of currents in presence/absence of compound, 0.1 μM [2] | Oocyte electrophysiology, ratio of currents in presence/absence of compound, 1 μM [2] | Gating (10 μM), ratio of compound only current/2 μM GABA current [2] | EC50 (Xenopus laevis tadpoles) [µM]
1 | C[C@]12CC[C@@H](O)C[C@@H]1CCC1C3CC[C@@H]4C=CC=C[C@]34CCC12 (stereo partly drawn) [Compound 60, (3α,5α)-13,24-Cyclo-18,21-dinorchol-20(22),23-dien-3-ol] | 2.70 ± 0.72 µM | > 10 | 136 to 138 °C | 467 ± 26 | 1.1 ± 0.1 |  |  |  |  | 
2 | CC12CCC(O)CC1CCC1C2CCC23CCCC(O)C2CCC13 [Compound 67, (3α,5α,20S)-13,24-cyclo-18,21-dinorcholane-3,20-diol] | None @ 10 |  | 261 to 262 °C | 613 ± 92 | 1.37 ± 0.15 | None @ 10 | 0.89 ± 0.03 | 0.94 ± 0.08 | −0.01 ± 0.00 | 
3 | CC12CCC(O)CC1CCC1C2CCC23CCCC(=CC#N)C2CCC13 (stereo not drawn) [Compound 64, (3α,5α,20Z)-3-Hydroxy-13,24-cyclo-18-norcholan-20-ene-21-carbonitrile] | 0.68 ± 0.15 µM | 10.2 | 201.5 to 203 °C | 1080 | 1.74 ± 0.11 |  | 1.19 ± 0.04 | 1.27 ± 0.03 | 0.03 ± 0.04 | 
4 | C[C@]12CC[C@@H](O)C[C@@H]1CCC1C3CC[C@@H]4[C@]5(CCC[C@]34CCC12)CO5 (stereo partly drawn) [Compound 74, (3α,5α,20R)-20,21-Epoxy-13,24-cyclo-18-norcholan-3-ol] | >10 µM |  | 206 to 211 °C (dec.) | 64 ± 9 | 4.53 ± 0.75 | None @ 10 | 1.61 ± 0.18 | 5.46 ± 1.21 | −0.01 ± 0.01 | 
5 | C=C1CCC[C@]23CCC4C(CC[C@@H]5C[C@H](O)CC[C@]45C)C2CC[C@H]13 (stereo partly drawn) [Compound 52, (3α,5α)-20-Methylene-13,24-cyclo-18,21-dinorcholan-3-ol] | 4.88 ± 1.12 µM | > 10 | 131 to 133 °C | 213 ± 21 | 6.22 ± 0.92 |  | 1.57 ± 0.16 | 3.47 ± 0.50 | −0.02 ± 0.02 | 
6 | CC12CCC(O)CC1CCC1C2CCC23C=CC(=O)CC2CCC13 (stereo not drawn) [Compound 30b, (3α,5β)-3-Hydroxy-13,24-cyclo-18,21-dinorchol-23-en-22-one] | 0.56 ± 0.9 µM |  | 196.5 to 199 °C | 4750 ± 970 | 4.44 ± 0.87 |  | 1.87 ± 0.24 | 1.80 ± 0.25 | 0.26 ± 0.31 | 5.48
7 | C[C@]12CC[C@@H](O)C[C@@H]1CCC1C3CC[C@@H]4C[C@@H](C#N)CC[C@]34CCC12 (stereo partly drawn) [Compound 44, (3α,5α,22S)-3-Hydroxy-13,24-cyclo-18,21-dinorcholane-22-carbonitrile] | 0.30 ± 0.03 µM | 6.28 ± 1.08 | 199 to 200 °C | 585 ± 30 | 4.01 ± 0.42 |  | 1.19 ± 0.02 | 1.14 ± 0.13 | 0.03 ± 0.01 | 
8 | C[C@]12CC[C@@H](O)C[C@@H]1CCC1C3CC[C@@H]4[C@@H]5O[C@@H]5CC[C@]34CCC12 (stereo partly drawn) [Compound 72, (3α,5α,20S,22R)-20,22-epoxy-13,24-cyclo-18,21-dinorcholan-3l] | 19.3 ± 30.8 µM |  | 203.5 to 205 °C | 323 ± 25 | 6.39 ± 1.33 | None @ 10 | 0.90 ± 0.15 | 2.20 ± 0.25 | −0.01 ± 0.04 | 
9 | CC(=O)C1CCCC23CCC4C(CCC5CC(O)CCC54C)C2CCC13 [Compound 80, (3α,5α,20R)-1-[3-Hydroxy-13,24-cyclo-18,21-dinorcholan-20-yl]ethanone] | None @ 10 |  | 228 to 229 °C | 2060 | 0.93 ± 0.07 | None @ 10 | 0.85 ± 0.02 | 0.77 ± 0.03 | 0.01 ± 0.01 | 
10 | C[C@]12CC[C@@H](O)C[C@@H]1CCC1C3CC[C@@H]4[C@@]5(CCC[C@]34CCC12)CO5 (stereo partly drawn) [Compound 73, (3α,5α,20S)-20,21-Epoxy-13,24-cyclo-18-norcholan-3-ol] | 4.00 ± 1.08 µM |  | 186 to 192 °C (dec.) | 1290 | 4.84 ± 1.05 | None @ 10 | 0.88 ± 0.05 | 2.54 ± 0.40 | −0.02 ± 0.04 | 
11 | C[C@]12CC[C@@H](O)C[C@@H]1CCC1C3CC[C@@H]4/C(=C/C#N)CCC[C@]34CCC12 (stereo partly drawn) [Compound 63, (3α,5α,20E)-3-Hydroxy-13,24-cyclo-18-norcholan-20-ene-21-carbonitrile] | 0.04 ± 0.00 µM | 0.08 ± 0.02 | 210 to 212 °C and 214 to 216 °C | 11 ± 1.8 | 17.82 ± 3.75 |  | 6.29 ± 1.71 | 12.34 ± 3.28 | 0.01 ± 0.02 | 
12 | CC12CCC(O)CC1CCC1C2CCC23C=CC(=O)C2CCC13 (stereo not drawn) [Compound 94, (3α,5α)-3-Hydroxy-18,21-cyclopregn-18(21)-en-20-one] | 3.37 ± 0.16 µM | 9.52 | 139 to 141 °C | 745 ± 75 | 2.78 ± 0.13 |  | 0.96 ± 0.02 | 1.41 ± 0.09 | −0.04 ± 0.02 | 
